Assay results from US12480163B2, “Compositions and methods for identification assessment, prevention, and treatment of Ewing sarcoma using TP53 dependency biomarkers and modulators” (Dana-Farber Cancer Institute, Inc., priority 2018, dated 2025).
“Also recorded” adds a separate entry of the source.

Columns and labels:
[1] = target: T1, p53-MDM4 complex (Homo sapiens, UniProt O15151); assay: MDM4 immunoprecipitation from TC32 cell lysates, p53 and MDM4 Western blot; format: binding; conditions: TC32 lysates after RG7388 pre-treatment, 20 μM compound
T1 construct: endogenous in cells; host or cells: TC32 Ewing sarcoma cells (TP53 wild-type), lysed in NP-40 buffer
T1 sequence (O15151 1-490): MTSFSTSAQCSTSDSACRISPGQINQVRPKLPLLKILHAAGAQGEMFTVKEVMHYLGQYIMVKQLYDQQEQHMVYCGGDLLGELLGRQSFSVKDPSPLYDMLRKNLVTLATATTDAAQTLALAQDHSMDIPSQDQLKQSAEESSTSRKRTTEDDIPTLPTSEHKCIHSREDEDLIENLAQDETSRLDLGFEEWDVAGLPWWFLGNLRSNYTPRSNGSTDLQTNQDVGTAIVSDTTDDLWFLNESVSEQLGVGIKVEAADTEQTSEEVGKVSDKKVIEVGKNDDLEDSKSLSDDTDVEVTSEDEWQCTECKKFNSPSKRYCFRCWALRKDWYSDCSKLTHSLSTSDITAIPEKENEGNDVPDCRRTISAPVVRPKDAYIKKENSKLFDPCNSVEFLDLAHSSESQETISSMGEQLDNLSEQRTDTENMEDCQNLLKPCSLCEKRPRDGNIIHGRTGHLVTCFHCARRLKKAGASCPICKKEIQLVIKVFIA
Procedure: g. Immunoprecipitation Experiments
Five million TC32 cells were treated with either 10 μM RG7388 or vehicle control for 4 h. Cells were lysed in buffer A (150 mM NaCl, 50 mM Tris, and 0.5% NP-40, pH 7.4) and combined with anti-MDM4 antibody (A300-287A; Bethyl Laboratories) in the presence of 20 μM RG7388, ATSP-7041, or vehicle control in a total volume of 1 ml, rotating at 4° C. for 16 h. Subsequently, 50 μl washed Protein AG beads (sc-2003; Santa Cruz) were added and the mixture was incubated for 1 h rotating at 4° C. Beads were washed three times in buffer A, and protein complexes were eluted by boiling in NuPage® LDS Sample Buffer (NP0007; Invitrogen) supplemented with DTT. Samples were analyzed by Western blot with antibodies against p53 DO-1 (sc-126; Santa Cruz) and MDM4 (A300-287A; Bethyl Laboratories).

[2] = system: TP53 wild-type Ewing sarcoma cell lines; assay: Annexin V staining, flow cytometry (cell death); format: cell-based; conditions: TC32 and CHLA258; 2 d ATSP-7041 (2 μM, 4 μM) or P5091 (6.5 μM, 8 μM), 3 d GSK2830371 (15 μM)
Procedure: Cell death was measured using flow cytometric analysis of Annexin V staining according to the manufacturer's instructions (eBioscience). Data analysis was completed using Flowjo 7.6 software (Treestar).

[3] = system: TC32 xenograft tumors; assay: TC32 Ewing sarcoma xenograft anti-tumor efficacy study; format: in vivo, mice; conditions: 30 mg/kg IV every other day for 20 d (10 doses) vs vehicle
Procedure: j. Ewing Sarcoma Xenograft Studies
For anti-tumor efficacy studies, tumor xenografts were established in 15 nude female mice by implanting three million TC32 cells into the right flank. Animals were randomized to either 20 d of treatment with 30 mg/kg q.o.d. IV ATSP-7041 (n=8) or vehicle (n=7) for a total of 10 doses. Treatment was started when tumors reached 100-200 mm3. Tumor volumes were measured with calipers twice a week. For PDX studies, tumor fragments were implanted into the right flank of nude female mice by minor surgery. After tumor engraftment, studies were performed as described for TC32 xenograft studies.
For in vivo studies, ATSP-7041 was prepared using the following protocol: mPEG-DSPE (Nanocs) was dissolved in chloroform and dried by a rotary evaporator. ATSP-7041 was dissolved in 1 M NaOH and diluted 100-fold in 10 mM histidine-buffered saline to a final concentration of 3 mg/ml. This mixture was added to the dried lipid film to a final mPEG-DSPE concentration of 50 mg/ml and final pH 7. The film was rehydrated by brief sonication and heating in a 50° C. water bath. The mixture was then subjected to five freeze-thaw cycles in liquid nitrogen and 40° C. water, respectively, and the solution passed 10 times through an Avanti Mini-Extruder Set (Avanti Polar Lipids) equipped with a 800-nm filter (Whatman).

[4] = system: TC32, TC138, and CHLA258 cells; assay: Drug synergy analysis, Chou-Talalay combination index for Loewe additivity; format: cell-based; conditions: CI<1 synergistic; for combination index, ATSP-7041 combined with P5091: CI>1 antagonistic
Procedure: Cell viability was assessed using the CellTiter-Glo® Luminescent Cell Viability Assay (Promega). Viability assays were performed after Ewing sarcoma cell lines were infected with sgRNAs targeting TP53, MDM2, MDM4, PPM1D, or USP7 or treated with ATSP-7041, ATSP-7342, GSK2830371, P5091, XL-188, or vehicle control.
k. Drug Synergy Analysis Chou-Talalay Combination Index for Loewe Additivity
Loewe Additivity is a dose-effect approach that estimates the effect of combining two drugs based on the concentration of each individual drug that produces the same quantitative effect (Goldoni and Johansson (2007) Toxicol. In Vitro 21:759-769). […] They introduced the combination index (CI) scores to estimate the interaction between the two drugs. If CI<1, the drugs have a synergistic effect, and if CI>1, the drugs have an antagonistic effect. CI=1 means the drugs have an additive effect.

[5] = TC32, TC138, CHLA258, 3 d, CI=1 additive

Q: Which results are given for `CC(=O)N[C@@H](CC(C)C)C(=O)N[C@H](C(=O)N[C@@H](Cc1ccccc1)C(=O)N[C@]1(C)CCCCCCC=CCCC[C@@](C)(C(=O)N[C@@H](CO)C(=O)N[C@@H](C)C(=O)N[C@@H](C)C(N)=O)NC(=O)[C@H](CC2CCC2)NC(=O)[C@H](CCC(N)=O)NC(=O)[C@H](C)NC(=O)[C@H](Cc2c[nH]c3ccccc23)NC(=O)[C@H](Cc2ccc(O)cc2)NC(=O)[C@H](CCC(=O)O)NC1=O)[C@@H](C)O` [ATSP-7041, Ac-Leu17-Thr-Phe-cyclo(R8-Glu-Tyr-Trp-Ala-Gln-Cba-S5)-Ser-Ala-Ala30-NH2]?
A: disruption of p53-MDM4 complex (MDM4 immunoprecipitation) [1]: partial disruption of p53-MDM4 complex; also recorded: decreased the level of p53-MDM4 interaction; cell death measured by Annexin V staining [2]: triggers cell death; also recorded: induction of cell death; tumor growth (normalized tumor volume) [3]: significantly suppressed tumor growth; combination index, ATSP-7041 combined with P5091 ([4]; CHLA258, 5 d, CI=1 additive): additivity; combination index, ATSP-7041 combined with doxorubicin [4, 5]: additivity or synergy; combination index, ATSP-7041 combined with etoposide [4, 5]: additivity or synergy; combination index, ATSP-7041 combined with vincristine [4, 5]: additivity or synergy; combination index, ATSP-7041 combined with GSK2830371 ([4]; TC32, TC138, and CHLA258, 3 d): strong synergy; combination index, ATSP-7041 combined with P5091 ([4]; TC32 and TC138, 5 d, CI=1 additive): synergy
